Columns and labels:
Assay in all cases: relative viability (nuclei count vs DMSO), 5 days (fraction); higher = more cells survive
H3255 = tested on: H3255
In short: (§1)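 Relative viability divides the nuclei count in treated wells by that in vehicle wells. Lung cancer cell lines were seeded in 1536-well plates, dosed by pin tool the next day, and fixed and stained after 5 days in one step with final 0.05% Triton X-100, 1% formaldehyde and 1 ug/ml Hoechst. Dosing was a single drug or a fixed anchor-drug dose plus five library-drug doses (not always all listed) in √10 steps, and values are medians of duplicate plates imaged at 4×.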

NCI-H2009 = tested on: NCI-H2009
In short: as §1

ABC-1 = tested on: ABC-1
In short: as §1

ChaGo-K-1 = tested on: ChaGo-K-1
In short: as §1

NCI-H441 = tested on: NCI-H441
In short: as §1

CAL-12T = tested on: CAL-12T
In short: as §1

NCI-H322M = tested on: NCI-H322M
In short: as §1

NCI-H1792 = tested on: NCI-H1792
In short: as §1

NCI-H2342 = tested on: NCI-H2342
In short: as §1

EKVX = tested on: EKVX
In short: as §1

NCI-H1975 = tested on: NCI-H1975
In short: as §1

NCI-H460 = tested on: NCI-H460
In short: as §1

NCI-H2228 = tested on: NCI-H2228
In short: as §1

NCI-H1993 = tested on: NCI-H1993
In short: as §1

HCC-366 = tested on: HCC-366
In short: as §1

COR-L 105 = tested on: COR-L 105
In short: as §1

SK-MES-1 = tested on: SK-MES-1
In short: as §1

NCI-H2085 = tested on: NCI-H2085
In short: as §1

NCI-H1355 = tested on: NCI-H1355
In short: as §1

EPLC-272H = tested on: EPLC-272H
In short: as §1

HCC-827 = tested on: HCC-827
In short: as §1

NCI-H2087 = tested on: NCI-H2087
In short: as §1

SMILES: Cc1csc(=NC2CCCCC2)n1/N=C/c1ccc(O)c(O)c1O [MIM1] + N=C(N)NC(=N)NCCc1ccccc1 [Phenformin] (partner 250 µM)
- relative viability (H3255; first compound 0.2 µM): 0.33
- relative viability (H3255; first compound 0.6325 µM): 0.386
- relative viability (H3255; first compound 2 µM): 0.379
- relative viability (H3255; first compound 6.325 µM): 0.402
- relative viability (H3255; first compound 20 µM): 0.302
- relative viability (NCI-H2009; first compound 0.2 µM): 0.493
- relative viability (NCI-H2009; first compound 0.6325 µM): 0.479
- relative viability (NCI-H2009; first compound 2 µM): 0.45
- relative viability (NCI-H2009; first compound 6.325 µM): 0.309
- relative viability (NCI-H2009; first compound 20 µM): 0.169
- relative viability (ABC-1; first compound 0.2 µM): 0.228
- relative viability (ABC-1; first compound 0.6325 µM): 0.261
- relative viability (ABC-1; first compound 2 µM): 0.231
- relative viability (ABC-1; first compound 6.325 µM): 0.201
- relative viability (ABC-1; first compound 20 µM): 0.189
- relative viability (ChaGo-K-1; first compound 0.2 µM): 0.521
- relative viability (ChaGo-K-1; first compound 0.6325 µM): 0.49
- relative viability (ChaGo-K-1; first compound 2 µM): 0.45
- relative viability (ChaGo-K-1; first compound 6.325 µM): 0.227
- relative viability (ChaGo-K-1; first compound 20 µM): 0.171
- relative viability (NCI-H441; first compound 0.2 µM): 0.914
- relative viability (NCI-H441; first compound 2 µM): 0.865
- relative viability (NCI-H441; first compound 6.325 µM): 0.543
- relative viability (NCI-H441; first compound 20 µM): 0.203
- relative viability (CAL-12T; first compound 0.2 µM): 0.614
- relative viability (CAL-12T; first compound 0.6325 µM): 0.467
- relative viability (CAL-12T; first compound 2 µM): 0.586
- relative viability (CAL-12T; first compound 6.325 µM): 0.372
- relative viability (CAL-12T; first compound 20 µM): 0.119
- relative viability (NCI-H322M; first compound 0.2 µM): 0.905
- relative viability (NCI-H322M; first compound 0.6325 µM): 0.809
- relative viability (NCI-H322M; first compound 2 µM): 0.766
- relative viability (NCI-H322M; first compound 6.325 µM): 0.735
- relative viability (NCI-H322M; first compound 20 µM): 0.36
- relative viability (NCI-H1792; first compound 0.2 µM): 0.446
- relative viability (NCI-H1792; first compound 0.6325 µM): 0.401
- relative viability (NCI-H1792; first compound 2 µM): 0.322
- relative viability (NCI-H1792; first compound 6.325 µM): 0.353
- relative viability (NCI-H1792; first compound 20 µM): 0.43
- relative viability (NCI-H2342; first compound 0.2 µM): 0.656
- relative viability (NCI-H2342; first compound 0.6325 µM): 0.543
- relative viability (NCI-H2342; first compound 2 µM): 0.584
- relative viability (NCI-H2342; first compound 6.325 µM): 0.53
- relative viability (NCI-H2342; first compound 20 µM): 0.785
- relative viability (EKVX; first compound 0.2 µM): 0.253
- relative viability (EKVX; first compound 0.6325 µM): 0.144
- relative viability (EKVX; first compound 2 µM): 0.213
- relative viability (EKVX; first compound 6.325 µM): 0.209
- relative viability (EKVX; first compound 20 µM): 0.198
- relative viability (NCI-H1975; first compound 0.2 µM): 0.432
- relative viability (NCI-H1975; first compound 0.6325 µM): 0.403
- relative viability (NCI-H1975; first compound 2 µM): 0.39
- relative viability (NCI-H1975; first compound 6.325 µM): 0.296
- relative viability (NCI-H1975; first compound 20 µM): 0.179
- relative viability (NCI-H460; first compound 0.2 µM): 0.497
- relative viability (NCI-H460; first compound 0.6325 µM): 0.531
- relative viability (NCI-H460; first compound 2 µM): 0.387
- relative viability (NCI-H460; first compound 6.325 µM): 0.172
- relative viability (NCI-H460; first compound 20 µM): 0.0325
- relative viability (NCI-H2228; first compound 0.2 µM): 0.389
- relative viability (NCI-H2228; first compound 0.6325 µM): 0.272
- relative viability (NCI-H2228; first compound 2 µM): 0.332
- relative viability (NCI-H2228; first compound 6.325 µM): 0.145
- relative viability (NCI-H2228; first compound 20 µM): 0.0959
- relative viability (NCI-H1993; first compound 0.2 µM): 0.481
- relative viability (NCI-H1993; first compound 0.6325 µM): 0.545
- relative viability (NCI-H1993; first compound 2 µM): 0.474
- relative viability (NCI-H1993; first compound 6.325 µM): 0.443
- relative viability (NCI-H1993; first compound 20 µM): 0.463
- relative viability (HCC-366; first compound 0.2 µM): 0.598
- relative viability (HCC-366; first compound 2 µM): 0.574
- relative viability (HCC-366; first compound 6.325 µM): 0.357
- relative viability (HCC-366; first compound 20 µM): 0.0831
- relative viability (COR-L 105; first compound 0.2 µM): 0.513
- relative viability (COR-L 105; first compound 0.6325 µM): 0.461
- relative viability (COR-L 105; first compound 2 µM): 0.404
- relative viability (COR-L 105; first compound 6.325 µM): 0.316
- relative viability (COR-L 105; first compound 20 µM): 0.307
- relative viability (SK-MES-1; first compound 0.2 µM): 0.643
- relative viability (SK-MES-1; first compound 0.6325 µM): 0.665
- relative viability (SK-MES-1; first compound 2 µM): 0.617
- relative viability (SK-MES-1; first compound 6.325 µM): 0.484
- relative viability (SK-MES-1; first compound 20 µM): 0.41
- relative viability (NCI-H2085; first compound 0.2 µM): 0.739
- relative viability (NCI-H2085; first compound 0.6325 µM): 0.713
- relative viability (NCI-H2085; first compound 2 µM): 0.788
- relative viability (NCI-H2085; first compound 6.325 µM): 0.589
- relative viability (NCI-H2085; first compound 20 µM): 0.468
- relative viability (NCI-H1355; first compound 0.2 µM): 0.46
- relative viability (NCI-H1355; first compound 0.6325 µM): 0.351
- relative viability (NCI-H1355; first compound 2 µM): 0.443
- relative viability (NCI-H1355; first compound 6.325 µM): 0.399
- relative viability (NCI-H1355; first compound 20 µM): 0.274
- relative viability (EPLC-272H; first compound 0.2 µM): 0.324
- relative viability (EPLC-272H; first compound 0.6325 µM): 0.273
- relative viability (EPLC-272H; first compound 2 µM): 0.279
- relative viability (EPLC-272H; first compound 6.325 µM): 0.184
- relative viability (EPLC-272H; first compound 20 µM): 0.104
- relative viability (HCC-827; first compound 0.2 µM): 0.412
- relative viability (HCC-827; first compound 0.6325 µM): 0.377
- relative viability (HCC-827; first compound 2 µM): 0.404
- relative viability (HCC-827; first compound 6.325 µM): 0.31
- relative viability (HCC-827; first compound 20 µM): 0.13
- relative viability (NCI-H2087; first compound 0.2 µM): 0.457
- relative viability (NCI-H2087; first compound 0.6325 µM): 0.443
- relative viability (NCI-H2087; first compound 2 µM): 0.478
- relative viability (NCI-H2087; first compound 6.325 µM): 0.289
- relative viability (NCI-H2087; first compound 20 µM): 0.225
